Assay results published in ChEMBL document CHEMBL1201862, “PubChem BioAssay data set” (2004).
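In this assay, cells in 96-well plates receive the compound at five concentrations for 48 hours. Endpoints are linearly interpolated between the surrounding concentrations. GI50 marks 50% less growth.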 Calls of active or inactive are those of the source. Rule as the data show it: active = GI50 up to about 1.1 µM and inactive = higher.

Columns and labels:
Test in all cases: growth of human tumour cells (NCI), 48 h
[1] = tested on: NCI/ADR-RES
[2] = tested on: HCT-116
[3] = tested on: HOP-62
[4] = tested on: MCF7
[5] = tested on: SK-OV-3
[6] = tested on: HL-60
[7] = tested on: Hs-578T
[8] = tested on: CCRF-CEM
[9] = tested on: SNB-19
[10] = tested on: CAKI-1
[11] = tested on: KM12
[12] = tested on: MDA-MB-231
[13] = tested on: SF-295
[14] = tested on: T47D
[15] = tested on: A549
[16] = tested on: SK-MEL-28
[17] = tested on: OVCAR-3
[18] = tested on: HCC 2998
[19] = tested on: BT-549
[20] = tested on: NCI-H460
[21] = tested on: EKVX
[22] = tested on: NCI-H23
[23] = tested on: NCI-H226
[24] = tested on: SR
[25] = tested on: HCT-15
[26] = tested on: UACC-62
[27] = tested on: SK-MEL-2
[28] = tested on: UACC-257
[29] = tested on: K562
[30] = tested on: IGROV-1
[31] = tested on: A498
[32] = tested on: U-251
[33] = tested on: COLO 205
[34] = tested on: RPMI-8226
[35] = tested on: OVCAR-4
[36] = tested on: M14
[37] = tested on: SN12C
[38] = tested on: OVCAR-8
[39] = tested on: HOP-92
[40] = tested on: SF-539
[41] = tested on: HT-29
[42] = tested on: RXF 393
[43] = tested on: ACHN
[44] = tested on: MDA-MB-435
[45] = tested on: MOLT-4
[46] = tested on: OVCAR-5
[47] = tested on: 786-0
[48] = tested on: SK-MEL-5
[49] = tested on: SF-268
[50] = tested on: DU-145
[51] = tested on: SW-620
[52] = tested on: PC-3
[53] = tested on: NCI-H522
[54] = tested on: TK-10
[55] = tested on: UO-31
[56] = tested on: SNB-75
[57] = tested on: LOX IMVI
[58] = tested on: MDA-N

For COc1ccc2c(c1)CCN=C2Cc1ccccc1CCCl, the GI50 [1] was 19.1 µM (inactive), the GI50 [2] was 11.9 µM (inactive) and the GI50 [3] was 36.5 µM (inactive). For the same molecule, the GI50 [4] was 26 µM (inactive), the GI50 [5] was 39.3 µM (inactive) and the GI50 [6] was 14.2 µM (inactive). For the same molecule, the GI50 [7] was 62.4 µM (inactive), the GI50 [8] was 20.7 µM (inactive) and the GI50 [9] was 25.8 µM (inactive). For the same molecule, the GI50 [10] was 22.1 µM (inactive), the GI50 [11] was 23.1 µM (inactive) and the GI50 [12] was 15.4 µM (inactive). The GI50 [13] was 20.7 µM (inactive), the GI50 [14] was 17.7 µM (inactive) and the GI50 [15] was 28.6 µM (inactive). The GI50 [16] was 32.6 µM (inactive), the GI50 [17] was 33.9 µM (inactive) and the GI50 [18] was 17.1 µM (inactive). The GI50 [19] was 44.2 µM (inactive), the GI50 [20] was 15.4 µM (inactive) and the GI50 [21] was 37.2 µM (inactive). For the same molecule, the GI50 [22] was 20.8 µM (inactive), the GI50 [23] was 26.2 µM (inactive) and the GI50 [24] was 51.2 µM (inactive). The GI50 [25] was 20.6 µM, the GI50 [26] was 22.5 µM (inactive) and the GI50 [27] was 25.5 µM (inactive). The GI50 [28] was 30.7 µM (inactive), the GI50 [29] was 18 µM (inactive) and the GI50 [30] was 25.8 µM (inactive). The GI50 [31] was 51.9 µM (inactive), the GI50 [32] was 33.1 µM (inactive) and the GI50 [33] was 17.5 µM (inactive). The GI50 [34] was 17.6 µM (inactive), the GI50 [35] was 22 µM (inactive) and the GI50 [36] was 19.1 µM (inactive). The GI50 [37] was 24.3 µM (inactive), the GI50 [38] was 23.4 µM (inactive) and the GI50 [39] was 23.7 µM (inactive). For the same molecule, the GI50 [40] was 20.5 µM (inactive), the GI50 [41] was 12.2 µM (inactive) and the GI50 [42] was 27.8 µM (inactive). The GI50 [43] was 30.1 µM (inactive), the GI50 [44] was 17.1 µM (inactive) and the GI50 [45] was 23.7 µM (inactive). The GI50 [46] was 40.5 µM (inactive), the GI50 [47] was 25.3 µM (inactive) and the GI50 [48] was 17.5 µM (inactive). For the same molecule, the GI50 [49] was 21.8 µM (inactive), the GI50 [50] was 50.5 µM (inactive) and the GI50 [51] was 26.1 µM (inactive). The GI50 [52] was 25.8 µM (inactive), the GI50 [53] was 19.6 µM (inactive) and the GI50 [54] was 53.2 µM (inactive). The GI50 [55] was 16.5 µM (inactive) and the GI50 [56] was 31.3 µM (inactive).

CCOC(=O)c1c(O)cc(=O)[nH]c1N1CCOCC1 was tested, and the GI50 [1] was > 100 µM (inactive), the GI50 [2] was > 100 µM (inactive) and the GI50 [3] was > 100 µM (inactive). The GI50 [4] was > 100 µM (inactive), the GI50 [5] was > 100 µM (inactive) and the GI50 [8] was > 100 µM (inactive). For the same molecule, the GI50 [9] was > 100 µM (inactive), the GI50 [10] was > 100 µM (inactive) and the GI50 [57] was > 100 µM (inactive). The GI50 [58] was > 100 µM (inactive), the GI50 [11] was > 100 µM (inactive) and the GI50 [13] was > 100 µM (inactive). For the same molecule, the GI50 [14] was > 100 µM (inactive), the GI50 [15] was > 100 µM (inactive) and the GI50 [16] was > 100 µM (inactive). The GI50 [17] was > 100 µM (inactive), the GI50 [18] was > 100 µM (inactive) and the GI50 [19] was > 100 µM (inactive). The GI50 [20] was > 100 µM (inactive), the GI50 [21] was > 100 µM (inactive) and the GI50 [22] was > 100 µM (inactive). For the same molecule, the GI50 [23] was > 100 µM (inactive), the GI50 [24] was > 100 µM (inactive) and the GI50 [25] was greater than 100 µM. For the same molecule, the GI50 [26] was > 100 µM (inactive), the GI50 [27] was > 100 µM (inactive) and the GI50 [28] was > 100 µM (inactive). The GI50 [29] was > 100 µM (inactive), the GI50 [30] was > 100 µM (inactive) and the GI50 [31] was > 100 µM (inactive). The GI50 [32] was > 100 µM (inactive), the GI50 [33] was > 100 µM (inactive) and the GI50 [34] was > 100 µM (inactive). For the same molecule, the GI50 [36] was > 100 µM (inactive), the GI50 [37] was > 100 µM (inactive) and the GI50 [38] was > 100 µM (inactive). The GI50 [39] was > 100 µM (inactive), the GI50 [40] was > 100 µM (inactive) and the GI50 [41] was > 100 µM (inactive). For the same molecule, the GI50 [43] was > 100 µM (inactive), the GI50 [44] was > 100 µM (inactive) and the GI50 [45] was > 100 µM (inactive). For the same molecule, the GI50 [46] was > 100 µM (inactive), the GI50 [47] was > 100 µM (inactive) and the GI50 [48] was > 100 µM (inactive). For the same molecule, the GI50 [50] was > 100 µM (inactive), the GI50 [51] was > 100 µM (inactive) and the GI50 [52] was > 100 µM (inactive). The GI50 [55] was > 100 µM (inactive) and the GI50 [56] was > 100 µM (inactive).
